Patent US9890119B2, “Indole and azaindole derivative having AMPK-activating activity” (SHIONOGI & CO., LTD., priority 2013, dated 2018)

Experiments:
Human AMPK α2β2γ1 = target: T1, Human AMPK α2β2γ1 (Homo sapiens, UniProt O43741+P54646); experiment: Test Example 2: evaluation of activators of AMP-activated protein kinase (mobility-shift assay, FL-Peptide 7); type: biochemical; conditions: human AMPK α2β2γ1 phosphorylated with CaMKK2; for Emax: control = 100%, read-out: Emax (maximum rate of increase in activity within the measurement range); for EC150 (compound concentration showing 150% relative to the control (100%)): 25° C., 2 hours, 1% DMSO
T1 construct: The full length cDNAs of human AMPK β2 (NM_005399.3) and human AMPK α2 (NM_006252.3) were inserted; the full length cDNA of human AMPK γ1 (NM_002733.3) had been inserted into pET28b(+); 6xHis (N); made in house; host or cells: Escherichia coli BL21 CodonPlus (DE3)-RIL
Method: The full length cDNAs of human AMPK β2 (NM_005399.3) and human AMPK α2 (NM_006252.3) were inserted into the MCS1 and MCS2 of the pETDuet-1 vector to prepare a human AMPK β2 and human AMPK α2 (6× His tag at the 5′ terminus) expressing plasmid. The plasmid was contransfected with an expression plasmid, in which the full length cDNA of human AMPK γ1 (NM_002733.3) had been inserted into pET28b(+), into BL21 CodonPlus (DE3)-RIL to obtain an expression strain. The expression strain was cultured in TB medium, followed by induction with 0.5 mM IPTG, and cultured at 25° C. for 3 hours and then harvested. After ultrasonication, supernatant was collected and applied to Histrap FF column (GE) and RESOUECE Q column (GE) to prepare 12.5 mg of purified sample containing three types of subunit from 1.8 L of broth.
An expression vector, in which the full length cDNA of human CAMKK β (NM_172226.1) had been inserted into pGEX-6P-3, was transfected into BL21 Star (DE3). The expression strain was cultured in TB medium, followed by induction with 0.5 mM IPTG, and cultured at 25° C. for 3 hours and then harvested. After ultrasonication, supernatant was collected and applied to GSTrap FF column (GE) to prepare 14 mg of GST-fused CAMKK […] from 720 ml of broth.
Thus, phosphorylation treatment was carried out as pretreatment.
Human AMPK α2β2γ1 in an amount to give a conversion rate of approximately 10% by reaction for 2 hours, and CaMKK2 in an amount capable of sufficiently imparting activity to AMPK for one hour were mixed in a buffer solution consisting of a 50 mM HEPES-NaOH buffer solution (pH 7.0), 100 mM NaCl, 5 mM magnesium chloride, 0.1% bovine serum albumin, 0.2 mM sodium orthovanadate(V), 1 mM ethylene glycol-bis(2-aminoethyl ether)-N,N,N′,N′-tetraacetic acid (EGTA), 5 mM disodium β-glycerophosphate, 1 mM dithiothreitol and 0.2 mM ATP, and the obtained liquid was left to stand at 25° C. for 1 to 1.5 hours to sufficiently phosphorylate AMPK.
After that, to the enzyme liquid, which had been subjected to phosphorylation treatment, a compound dissolved in DMSO was added so as to have a 1% DMSO concentration. The obtained liquid was left to stand for 10 minutes.
To the liquid, a substrate solution consisting of a 50 mM HEPES-NaOH buffer solution (pH 7.0), 100 mM NaCl, 10 mM magnesium chloride, 0.1% bovine serum albumin, 0.2 mM sodium orthovanadate(V), 1 mM ethylene glycol-bis(2-aminoethyl ether)-N,N,N′,N′-tetraacetic acid (EGTA), 5 mM disodium β-glycerophosphate, 2 mM dithiothreitol, 0.4 mM ATP and 3 μM FL-Peptide 7 (manufactured by Caliper Life Sciences, Inc.) was added in equal amount (10 μl in total). The obtained liquid was allowed to react at 25° C. for 2 hours, and 10 μl of 20 mM EDTA was then added thereto to stop the reaction.
To detect phosphorylated fluorescent substrates, the reaction liquid was applied to a measuring device, LabChip EZ Reader II manufactured by Caliper Life Science, Inc., for detecting fluorescence by using differences in mobility due to differences in charge. The setting conditions for the device were pressure, −1.5 PSI; upstream voltage, −2250 V; downstream voltage, −400 V; post sample buffer sip time, 40 seconds; final delay, 120 seconds; and peak order, Product First.
A conversion rate was calculated from the peak heights of the resulting substrate and product. The conversion rate when not containing a compound was used as a control, and a concentration dependent curve was made by plotting the rate of increase in activity to the control at each concentration of a compound. The compound concentration showing 150% relative to the control (100%) was used as the EC 150 value, and the maximum rate of increase in activity within the measurement range was used as Emax.

T1 sequence (P54646 whole entry): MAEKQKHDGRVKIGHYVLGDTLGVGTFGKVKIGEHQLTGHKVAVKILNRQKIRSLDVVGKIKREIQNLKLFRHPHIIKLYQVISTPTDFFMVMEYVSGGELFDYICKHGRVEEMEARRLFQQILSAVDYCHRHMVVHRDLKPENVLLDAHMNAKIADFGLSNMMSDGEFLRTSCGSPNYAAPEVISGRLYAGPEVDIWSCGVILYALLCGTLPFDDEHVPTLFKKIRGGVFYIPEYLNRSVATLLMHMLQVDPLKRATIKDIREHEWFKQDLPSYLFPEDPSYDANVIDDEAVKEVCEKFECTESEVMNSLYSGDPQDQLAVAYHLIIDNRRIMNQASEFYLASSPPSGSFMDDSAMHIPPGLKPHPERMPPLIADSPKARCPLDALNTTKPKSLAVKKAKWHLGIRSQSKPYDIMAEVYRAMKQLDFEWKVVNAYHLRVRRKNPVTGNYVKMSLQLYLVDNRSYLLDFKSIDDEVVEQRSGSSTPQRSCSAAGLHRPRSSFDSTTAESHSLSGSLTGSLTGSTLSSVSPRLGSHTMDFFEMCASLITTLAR
T1 sequence (O43741 whole entry): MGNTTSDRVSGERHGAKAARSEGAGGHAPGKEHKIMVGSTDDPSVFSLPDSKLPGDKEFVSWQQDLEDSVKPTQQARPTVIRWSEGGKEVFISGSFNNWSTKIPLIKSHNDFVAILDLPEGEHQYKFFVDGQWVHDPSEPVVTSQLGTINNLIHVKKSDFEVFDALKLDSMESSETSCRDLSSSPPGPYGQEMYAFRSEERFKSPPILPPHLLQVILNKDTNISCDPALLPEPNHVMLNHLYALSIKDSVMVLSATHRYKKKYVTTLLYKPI
T1 sequence (P54619 whole entry partner): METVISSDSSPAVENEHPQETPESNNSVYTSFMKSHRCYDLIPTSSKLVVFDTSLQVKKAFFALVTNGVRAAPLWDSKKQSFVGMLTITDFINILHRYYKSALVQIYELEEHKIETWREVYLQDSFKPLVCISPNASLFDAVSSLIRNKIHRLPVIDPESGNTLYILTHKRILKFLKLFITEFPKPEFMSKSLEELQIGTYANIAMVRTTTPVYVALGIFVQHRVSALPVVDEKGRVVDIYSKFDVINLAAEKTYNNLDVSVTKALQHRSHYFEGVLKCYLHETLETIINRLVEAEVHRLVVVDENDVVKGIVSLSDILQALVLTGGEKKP

SMILES | Emax (Human AMPK α2β2γ1) | EC150 (compound concentration showing 150% relative to the control (100%)) (Human AMPK α2β2γ1) | phototoxicity test (Phototoxicity test)
CC(C)(CO)C(=O)N1CCC(Oc2cc3nc(-c4ccc(C5=CCC(C(=O)O)CC5)cc4)c(Cl)cc3[nH]2)CC1 (stereo not shown) [Compound I-3-38] | 560% |  | 
CC(C)(C(=O)O)[C@H]1CC[C@H](Oc2cc3nc(-c4ccc(N5CCOCC5)cc4)c(Cl)cc3[nH]2)CC1 [Compound I-3-22] | 264% | 120 nM | 
CC(=O)NC(C)(C)c1ccc(Oc2cc3nc(-c4c(F)cc(N5CCOCC5)cc4F)ccc3[nH]2)cc1 [Compound I-3-9] | 446% | 39 nM | 
Cc1ccc(Oc2cc3nc(-c4ccc(N5CCOCC5)cc4)c(Cl)cc3[nH]2)cc1C(=O)O [Compound I-3-50] | 435% | 63 nM | 
O[C@@H]1CO[C@H]2[C@@H]1OC[C@H]2Oc1cc2nc(-c3c(F)cc(C4=CCOCC4)cc3F)ccc2[nH]1 [Compound I-3-32] | 661% | 2.6 nM | 
N#Cc1c(O[C@@H]2CO[C@H]3[C@@H]2OC[C@H]3O)[nH]c2cc(Cl)c(-c3ccc(C4=CCN(C(=O)CO)CC4)cc3)cc12 [Compound I-1-9] | 559% | 20 nM | 
O[C@@H]1CO[C@H]2[C@@H]1OC[C@H]2Oc1cc2nc(-c3ccc(-c4ccccc4)cc3)c(Cl)cc2[nH]1 [Compound I-3-18] | 489% | 4.1 nM | 
O[C@@H]1CO[C@H]2[C@@H]1OC[C@H]2Oc1cc2nc(-c3ccc(N4CCOCC4)cc3)c(Cl)cc2[nH]1 [Compound I-3-15] | 559% | 1.9 nM | 
CC(=O)NC/C=C/c1ccc(-c2cc3c(C#N)c(O[C@@H]4CO[C@H]5[C@@H]4OC[C@H]5O)[nH]c3cc2Cl)cc1 [Compound I-2-9] | 503% | 34 nM | 
CC(=O)NC1CC=C(c2ccc(-c3nc4cc(O[C@@H]5CO[C@H]6[C@@H]5OC[C@H]6O)[nH]c4cc3Cl)cc2)CC1 (stereo partly shown) [Compound I-3-46] | 750% | 0.48 nM | 
N#Cc1c(O[C@@H]2CO[C@H]3[C@@H]2OC[C@H]3O)[nH]c2cc(Cl)c(-c3ccc(C4=CCC(C(=O)O)CC4)cc3)cc12 (stereo partly shown) [Compound I-1-8] | 580% | 39 nM | 
Cc1ccc(Oc2[nH]c3cc(Cl)c(-c4ccc(N5CCOCC5)cc4)cc3c2C#N)cc1C(=O)O [Compound I-1-6] | 618% | 76 nM | 
Cc1ccc(Oc2nc3nc(-c4ccc(N5CCOCC5)cc4)c(Cl)cc3[nH]2)cc1C(=O)O [A−1, reference compound] | 394% | 130 nM | 
CC(C)(CO)C(=O)N1CCC(Oc2cc3nc(-c4ccc(N5CCOCC5)cc4)c(Cl)cc3[nH]2)CC1 [Compound I-3-28] | 510% | 54 nM | 
N#Cc1c(O[C@@H]2CO[C@H]3[C@@H]2OC[C@H]3O)[nH]c2ccc(-c3c(F)cc(C4=CCOCC4)cc3F)nc12 [Compound I-3-45] | 694% | 26 nM | 
Clc1cc2[nH]c(O[C@@H]3CO[C@@H]4CCO[C@@H]43)cc2nc1-c1ccc(N2CCOCC2)cc1 [Compound I-3-37] |  |  | negative
N#Cc1cc2[nH]c(O[C@@H]3CO[C@H]4[C@@H]3OC[C@H]4O)c(C#N)c2cc1-c1ccc(N2CCOCC2)cc1 [Compound I-2-17] | 587% | 98 nM | 
N#Cc1c(O[C@@H]2CO[C@H]3[C@@H]2OC[C@H]3O)[nH]c2ccc(-c3c(F)cc(N4CC[C@@H](O)C4)cc3F)nc12 [Compound I-3-49] | 848% | 18 nM | 
O=C(O)C1CC=C(c2ccc(-c3nc4cc(O[C@@H]5CO[C@H]6[C@@H]5OC[C@H]6O)[nH]c4cc3Cl)cc2)CC1 (stereo partly shown) [Compound I-3-21] | 787% | 0.21 nM | 
CS(=O)(=O)NC1CC=C(c2ccc(-c3nc4cc(O[C@@H]5CO[C@H]6[C@@H]5OC[C@H]6O)[nH]c4cc3Cl)cc2)CC1 (stereo partly shown) [Compound I-3-47] | 727% | 0.76 nM | 
O[C@@H]1CO[C@H]2[C@@H]1OC[C@H]2Oc1cc2nc(-c3c(F)cc(N4CCOCC4)cc3F)c(F)cc2[nH]1 [Compound I-3-24] | 729% | 8.8 nM | 
